According to patent publication US5942494A, “Stimulation of gene expression and synthesis of heat shock protein 72/73 (HSP 70)” (The Trustees of Columbia University in the City of New York, priority 1996, dated 1999):
Square brackets hold non-standard residues; d marks the D form. Peptide text beside a SMILES is read from it. Nle = CCCC[C@H](N)C(=O)O

Key:
hsp70 (hsp72) mRNA = experiment: Northern blot of hsp70 (hsp72) mRNA in HepG2 cells; type: cell-based, human
Method: HepG2 cells were treated with serum-free MEM containing either 1.5% BSA alone (Control, lane1), BSA plus 40 μg/ml of ALLN (ALLN, lane2), ALLN and 10 μg/ml of actinomycin D (A+AD, lane3), or ALLN and 50 μg/ml of cycloheximide (A+CXM, lane4). After 4 hours treatment at 37° C., cells were harvested. (B). HepG2 cells were treated with 40 μg/ml of ALLN in the serum-free MEM for up to 0 hour (lane1), 1 hour (lane2), 2 hours (lane3), and 3 hours (lane4) and then harvested without recovery. Or after treatment for 3 hours in the presence of ALLN as above, the ALLN containing medium were removed, cells were washed and fed fresh medium containing only BSA for recovery of up to 1 hour (lane5), 3 hours (lane6), 5 hours (lane7) or 7 hours (lane8). The total RNA was prepared, and equal amounts of the samples were loaded and run on a 1% formaldehyde-agarose gel, blotted onto a nylon membrane, and subsequently hybridized with specific synthetic oligonucleotide probes for hsp70 mRNA as described under Experimental Details. The position of 28S and 18S rRNA are shown for reference.
Total RNA was prepared using the procedure of Chomczynski and Sacchi (Chomczynski, et al., 1987) and a commercially prepared reagent, TRISOLV™ (Biotecx Laboratories Inc., Tex.) . Equal amounts of tRNA samples (10 μg) were size-fractionated on a 1% agarose-formaldehyde gel according to the methods described (Maniatis, et al., 1982) and transferred to a piece of QIAGEN plus nylon membrane. To determine loading and transfer efficiency, RNA was stained with ethidium bromide before and after transfer. The membrane was baked for 30 min. at 80° C. in vacuo (a vacuum) followed by UV cross-linking. It was then incubated for 4 hours at 65° C. in a prehybridization mixture containing 10% dextran sulfate, 1% SDS, 1M sodium chloride, 50 mM Tris-HCl (pH 7.5) and 100 μg/ml denatured salmon sperm DNA. Hybridization was carried out for 18 hours at 65° C. in the same buffer with a ^32 P-labeled (1×10^6 cpm/ml) 40-mer oligonucleotide probe to the untranslated 5' region of a human hsp70 gene (Oncogene Science). […] The membrane was then washed four times with 2×SSC, 0.1% SDS at room temperature, one time at 65° C. for 30 min., and one time at room temperature again for 5 min., and finally rinsed with 2×SSC at room temperature. This membrane was air dried and exposed to X-ray film at -80° C. for 48 hours.
Total RNA was isolated from HepG2 cells which had been incubated for 4 hours at 37° C. (FIG. 5A) with MEM containing BSA alone (Control, lane1), BSA plus 40 μg/ml of ALLN (ALLN, lane2), BSA plus ALLN and […] of actinomycin D (A+AD, lane3) or BSA plus ALLN and 50 μg/ml of cycloheximide (A+CXM, lane4). A radioprobe containing a unique sequence specific for the 5' untranslated region of hsp72 (inducible form) (Freeman et al., 1993) was used for Northern blot analysis.

HSF1 = experiment: EGS cross-linking and Western blot of HSF1 oligomeric forms in HepG2 cells; type: cell-based, human; settings: ALLN 40 μg/ml, 2 hours at 37° C., EGS cross-linking
Method: FIGS. 6A-6B: ALLN affects the trimerization of HSF. HepG2 cells were treated with serum-free MEM containing 1.5% BSA for 2 hours at 37° C. without any additions (lane1), at 37 ° C. but containing 40μg/ml of ALLN in the medium (lane2), at 37° C. in a medium containing both ALLN and 50 μg/ml of cycloheximide (lane3) , at 42° C. alone (lane4), or at 42° C. plus cycloheximide in the medium (lane5). Cell lysates were prepared as described under Experimental Details. The lysates were either directly run on the SDS-PAGE (A) to show the steady-state protein levels of HSF1 or subjected to cross-linking with ethylene glycol bis sucrinimidylsuccinate (EGS) before running the gel (B) to show the oligomeric forms of HSF1. The proteins were then transfered to a nitrocellulose membrane and immunoblotted with anti-human HSF1 antibody. Arrows on the right side indicates the monomeric, dimeric or trimeric forms of HSF1, respectively. This experiment was repeated three times with identical results.
For measurement of the steady-state HSF1 protein levels, whole cell extracts were prepared by lysing the cells directly with 2×SDS-sample buffer (Maniatis, et al., 1982). For chemical cross-linking experiments, whole-cell extracts were prepared as described (Mosser, et al., 1988). Briefly, the cold PBS-washed cell pellets were quickly and repeatedly frozen in liquid nitrogen. […]

CCCC[C@@H](C=O)NC(=O)[C@H](CC(C)C)NC(=O)[C@H](CC(C)C)NC(C)=O [ALLN, N-acetyl-leucyl-leucyl-norleucinal] (Ac-Leu-Leu-[Nle]-aldehyde)
hsp70 (hsp72) mRNA after recovery (hsp70 (hsp72) mRNA; 3 hours ALLN 40 μg/ml, then 7 hours of recovery in ALLN-free medium): declined to background levels
Time of ALLN treatment to significant elevation of hsp70 (hsp72) mRNA (hsp70 (hsp72) mRNA; ALLN 40 μg/ml): ≤ 60 min
Amount of hsp70 (hsp72) mRNA (hsp70 (hsp72) mRNA; ALLN 40 μg/ml, 4 hours at 37° C.): increased dramatically
Oligomeric form of HSF1 (270-kDa cross-linked product) (HSF1): trimer
